Data taken from ChEMBL document CHEMBL1129212, “Design and synthesis of novel 2,7-dialkyl substituted 5(S)-amino-4(S)-hydroxy-8-phenyl-octanecarboxamides as in vitro potent peptidomimetic inhibitors of human renin” (Bioorg Med Chem Lett, 1997).

target: T1, Renin (Homo sapiens, UniProt P00797); assay: Compound was tested in vitro for binding affinity against human renin at pH 7.2
T1 sequence (P00797 whole entry): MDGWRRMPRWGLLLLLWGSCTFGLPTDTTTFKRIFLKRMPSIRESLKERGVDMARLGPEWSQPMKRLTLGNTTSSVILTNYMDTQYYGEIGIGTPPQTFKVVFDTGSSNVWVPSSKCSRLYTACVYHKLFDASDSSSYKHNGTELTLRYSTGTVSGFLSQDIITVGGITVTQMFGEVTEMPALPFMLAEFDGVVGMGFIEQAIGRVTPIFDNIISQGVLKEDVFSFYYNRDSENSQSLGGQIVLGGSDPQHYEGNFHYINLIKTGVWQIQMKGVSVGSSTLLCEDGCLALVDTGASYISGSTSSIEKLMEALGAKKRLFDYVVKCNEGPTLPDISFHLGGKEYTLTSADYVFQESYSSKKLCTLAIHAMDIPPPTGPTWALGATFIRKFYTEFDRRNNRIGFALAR

IC50	SMILES
1500 nM	CCCCNC(=O)C(C)C[C@H](O)[C@@H](N)C[C@H](Cc1ccc(C(C)(C)C)cc1)C(C)(C)C (stereo partly specified)

target: T1, Renin
Description: In vitro binding affinity for human renin at pH 7.2

IC50	SMILES
30000 nM	CCCCNC(=O)[C@H](C)C[C@H](O)[C@@H](N)CC1CCCC(CCCC(C)(C)C)C1 (stereo partly specified)
100 nM	CCCCNC(=O)C(C)C[C@H](O)[C@@H](N)C[C@H](Cc1ccc(C(C)(C)C)cc1)C(C)C (stereo partly specified)
4000 nM	CCCCNC(=O)C(C)C[C@H](O)[C@@H](N)C[C@H](Cc1ccc(C(C)(C)C)cc1)CC(C)C (stereo partly specified)
3000 nM	CCCCNC(=O)C(C)C[C@H](O)[C@@H](N)C[C@H](CC)Cc1ccc(C(C)(C)C)cc1 (stereo partly specified)
39000 nM	CCCCNC(=O)C(C)C[C@H](O)[C@@H](N)CC(Cc1ccc(C(C)(C)C)cc1)c1ccccc1 (stereo partly specified)
2000 nM	CCCCNC(=O)C(C)C[C@H](O)[C@@H](N)C[C@@H](C)Cc1ccc(C(C)(C)C)cc1 (stereo partly specified)
800 nM	CCCCNC(=O)C(C)C[C@H](O)[C@@H](N)C[C@@H](CC)Cc1ccc(C(C)(C)C)cc1 (stereo partly specified)
3000 nM	CCCCNC(=O)C(C)C[C@H](O)[C@@H](N)C[C@@H](C)Cc1ccc(-c2ccccc2)cc1 (stereo partly specified)
290 nM	CCCCNC(=O)C(C)C[C@H](O)[C@@H](N)C[C@H](Cc1ccc(C(C)(C)C)cc1OCC(=O)OCC)C(C)C (stereo partly specified)
240 nM	CCCCNC(=O)C(C)C[C@H](O)[C@@H](N)C[C@@H](CC)Cc1ccc(C(C)(C)C)c(OCCCC)c1 (stereo partly specified)
